Measured values published in US9896441B2 (Lycera Corporation, priority 2014, dated 2018).

Tests used:
[1] = target: T1, RORγ-LBD (Homo sapiens, UniProt P51449); assay: RORγ-Ligand Binding Domain (LBD) TR-FRET Assay; type: biochemical; settings: for TR-FRET Assay Max Response: maximum response;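 as to TR-FRET Assay Max Response: 665/615 nm signal ratio set to 100 without ursolic acid or test compound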
T1 construct: made in house; host or cells: SF9 cells (baculovirus); used as diluted lysate
T1 sequence (P51449 269-508 limits assumed): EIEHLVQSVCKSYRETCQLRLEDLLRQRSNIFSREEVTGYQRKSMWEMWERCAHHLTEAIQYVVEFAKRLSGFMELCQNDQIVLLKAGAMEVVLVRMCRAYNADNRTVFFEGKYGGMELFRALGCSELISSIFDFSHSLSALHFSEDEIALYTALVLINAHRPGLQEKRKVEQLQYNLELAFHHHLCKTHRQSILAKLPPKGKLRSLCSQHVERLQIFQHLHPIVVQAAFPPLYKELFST
Procedure, shortened: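 TR-FRET read-out using a biotin-tagged SRC1 coactivator LXXLL peptide (200 nM final), with the antagonist ursolic acid present at 2 μM final. Receptor is His-tagged LBD expressed in SF9 cells, ~3 nM final in pH 7.0 Tris/KCl/EDTA/DTT/BSA buffer; compounds in 1% DMSO final.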

[2] = target: T2, Gal4-RORγ-LBD (Homo sapiens, UniProt P51449); assay: Gal4-RORγ Luciferase Reporter Assay in HEK-293T Cells; type: cell-based; settings: HEK-293 cells; for Gal4-RORγ Assay Max Response: maximum response
T2 construct: expressed in transfected cells
T2 sequence (P51449 269-508 limits assumed): T1 sequence (P51449 269-508 limits assumed)
Procedure, shortened: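 Max Response was taken as the upper plateau of a 4-parameter logistic fit of luciferase signal, normalized to 100 for wells without ursolic acid or compound. Transiently Gal4-RORγ-LBD/Gal4-luc transfected HEK-293 cells carrying […] ursolic acid were incubated with test compounds (0.2% DMSO) overnight at 37 °C and read with One-Glo.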

[3] = luciferase reporter, with ursolic acid
[4] = luciferase reporter, in presence of ursolic acid
[5] = with 2 μM ursolic acid (RORγ antagonist), highest test concentration 10 μM
[6] = ursolic acid present, luciferase readout

Row | SMILES | EC50 ([1]; RORγ-LBD TR-FRET) | EC50 [2, 3] | other results
1 | O=C(O)CC[C@H]1CN(S(=O)(=O)c2ccc(F)c(OC(F)F)c2)c2cc(/C=C/c3c(F)cccc3Cl)ccc2O1 [Example 89CV, (S,E)-3-(6-(2-chloro-6-fluorostyryl)-4-((3-(difluoromethoxy)-4-fluorophenyl)-sulfonyl)-3,4-dihydro-2H-benzo[b][1,4]oxazin-2-yl)propanoic acid] | < 500 nM | < 500 nM | –
2 | CCOc1ncc(C(F)(F)F)cc1S(=O)(=O)N1C[C@H](CCC(=O)N2CCC(C(=O)O)CC2)Oc2ccc(/C=C(\C)c3c(F)cccc3Cl)cc21 [Example 129L, (S,E)-1-(3-(6-(2-(2-chloro-6-fluorophenyl)-prop-1-en-1-yl)-4-((2-ethoxy-5-(trifluoro-methyl)pyridin-3-yl)sulfonyl)-3,4-dihydro-2H-benzo[b][1,4]oxazin-2-yl)propanoyl)-piperidine-4-carboxylic acid] | – | – | EC50 ([1]; RORγ-LBD TR-FRET assay): < 500 nM; TR-FRET Assay Max Response ([1]; RORγ-LBD TR-FRET assay): *** (a value in the range of greater than 150 to 200); EC50 [2, 4]: < 500 nM; Gal4-RORγ Assay Max Response [2, 4]: * (a value in the range of 30 to 90)
3 | C/C(=C\c1cc2c(cc1Cl)O[C@@H](CCC(=O)O)CN2S(=O)(=O)c1cccc(OC(F)F)c1)c1c(F)cccc1Cl [Example 48, (S,E)-3-(6-(2-(2-Chloro-6-fluorophenyl)prop-1-en-1-yl)-4-((3-(difluoromethoxy)phenyl)sulfonyl)-7-chloro-3,4-dihydro-2H-benzo[b][1,4]oxazin-2-yl)propanoate] | 500 to 5000 nM | < 500 nM | –
4 | CCC(=Cc1ccc2c(c1)N(S(=O)(=O)c1cc(C(F)(F)F)cnc1OCCO)C[C@H](CCC(=O)O)O2)CC [Example 95F, (S)-3-(6-(2-ethylbut-1-en-1-yl)-4-((2-(2-hydroxyethoxy)-5-(trifluoromethyl)pyridin-3-yl)sulfonyl)-3,4-dihydro-2H-benzo[b][1,4]oxazin-2-yl)propanoic acid] | < 500 nM | 500 to 5000 nM | –
5 | CCOc1nn(CC)cc1S(=O)(=O)N1C[C@H](CCC(=O)O)Oc2ccc(/C=C/c3c(Cl)cccc3Cl)cc21 [Example 89CR, (S,E)-3-(6-(2,6-dichlorostyryl)-4-((3-ethoxy-1-ethyl-1H-pyrazol-4-yl)sulfonyl)-3,4-dihydro-2H-benzo[b][1,4]oxazin-2-yl)-propanoic acid] | < 500 nM | < 500 nM | –
6 | O=C(O)CC[C@H]1CN(S(=O)(=O)c2cccc(C(F)(F)F)c2)c2cc(C3CCCCC3)ccc2O1 [Example 194, (S)-3-(6-cyclohexyl-4-((3-(trifluoromethyl)phenyl)sulfonyl)-3,4-dihydro-2H-benzo[b][1,4]oxazin-2-yl)propanoic acid] | – | – | EC50 [1, 5]: < 500 nM; EC50 [2, 6]: < 500 nM
7 | CC(C)Oc1ncc(C(F)(F)F)cc1S(=O)(=O)N1C[C@H](CCC(=O)O)Oc2ccc(/C=C/c3c(F)cccc3Cl)cc21 [Example 89FK, (S,E)-3-(6-(2-chloro-6-fluorostyryl)-4-((2-isopropoxy-5-(trifluoromethyl)pyridin-3-yl)sulfonyl)-3,4-dihydro-2H-benzo[b][1,4]oxazin-2-yl)propanoic acid] | < 500 nM | > 10000 nM | –
8 | CCOc1nn(CC)cc1S(=O)(=O)N1C[C@H](CCC(=O)OC)Oc2ccc(/C=C/c3c(F)cccc3C(F)(F)F)cc21 [Example 87, Methyl (S,E)-3-(4-((3-ethoxy-1-ethyl-1H-pyrazol-4-yl)sulfonyl)-6-(2-fluoro-6-(trifluoromethyl)styryl)-3,4-dihydro-2H-benzo[b][1,4]oxazin-2-yl)propanoate] | < 500 nM | 500 to 5000 nM | –
9 | CC(=O)N[C@H](C)[C@H]1CN(S(=O)(=O)c2cccc(C(F)(F)F)c2)c2cc(/C=C(\C)c3c(F)cccc3Cl)ccc2O1 [Example 103, N—((R)-1-((R)-6-((E)-2-(2-Chloro-6-fluorophenyl)prop-1-en-1-yl)-4-((3-(trifluoromethyl)phenyl)sulfonyl)-3,4-dihydro-2H-benzo[b][1,4]oxazin-2-yl)ethyl)acetamide] | < 500 nM | < 500 nM | –
10 | CCOc1nn(CC)cc1S(=O)(=O)N1C[C@H](CCC(=O)O)Oc2ccc(/C=C/c3ccccn3)cc21 [Example 89E, (S,E)-3-(4-((3-ethoxy-1-ethyl-1H-pyrazol-4-yl)sulfonyl)-6-(2-(pyridin-2-yl)vinyl)-3,4-dihydro-2H-benzo[b][1,4]oxazin-2-yl)propanoic acid] | > 10000 nM | > 10000 nM | –
11 | CC/C(=C\c1ccc2c(c1)N(S(=O)(=O)c1cc(C(F)(F)F)cnc1OCCO)C[C@H](CCC(=O)O)O2)C(C)C [Example 191E, (S,E)-3-(6-(2-ethyl-3-methylbut-1-en-1-yl)-4-((2-(2-hydroxy-ethoxy)-5-(trifluoromethyl)-pyridin-3-yl)sulfonyl)-3,4-dihydro-2H-benzo[b][1,4]oxazin-2-yl)propanoic acid] | – | – | EC50 [1, 5]: < 500 nM; EC50 [2, 6]: 500 to 5000 nM
12 | O=C(O)CC[C@H]1CN(S(=O)(=O)c2cc(C(F)(F)F)cnc2OCCO)c2cc(CC3CCCCC3)ccc2O1 [Example 95D, (S)-3-(6-(cyclohexylmethyl)-4-((2-(2-hydroxyethoxy)-5-(trifluoromethyl)pyridin-3-yl)sulfonyl)-3,4-dihydro-2H-benzo[b][1,4]oxazin-2-yl)propanoic acid] | < 500 nM | 500 to 5000 nM | –
13 | C/C(=C\c1ccc2c(c1)N(S(=O)(=O)c1cncc(C(F)(F)F)c1)C[C@H](CCC(=O)O)O2)c1c(F)cccc1Cl [Example 75, (S,E)-3-(6-(2-(2-Chloro-6-fluorophenyl)prop-1-en-1-yl)-4-((5-(trifluoromethyl)pyridin-3-yl)sulfonyl)-3,4-dihydro-2H-benzo[b][1,4]oxazin-2-yl)propanoic acid] | < 500 nM | 500 to 5000 nM | –
14 | COC(=O)CO[C@@H]1Cc2ccc(OCc3c(F)cccc3Cl)cc2N(S(=O)(=O)c2cccc(C(F)(F)F)c2)C1 [Example 173A] | – | – | EC50 ([1]; RORγ-LBD TR-FRET assay): < 500 nM; EC50 [2, 4]: < 500 nM
15 | COC(=O)CC[C@H]1CN(S(=O)(=O)c2cccc(OC(F)F)c2)c2cc(/C=C(\C)c3c(F)cccc3Cl)ccc2O1 [Example 86P, (S,E)-methyl 3-(6-(2-(2-chloro-6-fluorophenyl)prop-1-en-1-yl)-4-((3-(difluoromethoxy)phenyl)-sulfonyl)-3,4-dihydro-2H-benzo[b][1,4]oxazin-2-yl)propanoate] | < 500 nM | 500 to 5000 nM | –
16 | O=C(O)CC[C@H]1CN(S(=O)(=O)c2cccc(C(F)(F)F)c2)c2cc(C=C3CCC(F)(F)CC3)ccc2O1 [Example 95L, (S)-3-(6-((4,4-difluorocyclo-hexylidene)methyl)-4-((3-(trifluoromethyl)phenyl)sulfonyl)-3,4-dihydro-2H-benzo[b][1,4]oxazin-2-yl)propanoic acid] | < 500 nM | < 500 nM | –
17 | Cn1cnc(S(=O)(=O)N2C[C@H](CCC(=O)O)Oc3ccc(/C=C/c4c(F)cccc4Cl)cc32)c1Cl [Example 89DZ, (S,E)-3-(4-((5-chloro-1-methyl-1H-imidazol-4-yl)sulfonyl)-6-(2-chloro-6-fluorostyryl)-3,4-dihydro-2H-benzo[b][1,4]-oxazin-2-yl)propanoic acid] | 500 to 5000 nM | > 10000 nM | –
18 | COc1nn2c(c1S(=O)(=O)N1C[C@H](CCC(=O)O)Oc3ccc(/C=C(\C)c4c(F)cccc4Cl)cc31)CCCC2 [Example 86K, (S,E)-3-(6-(2-(2-chloro-6-fluorophenyl)prop-1-en-1-yl)-4-((2-methoxy-4,5,6,7-tetrahydropyrazolo[1,5-a]pyridin-3-yl)sulfonyl)-3,4-dihydro-2H-benzo[b][1,4]oxazin-2-yl)propanoic acid] | < 500 nM | < 500 nM | –
19 | COC(=O)CC[C@H]1CN(S(=O)(=O)c2cccc(C(F)(F)F)c2)c2cc(/C=C(\C)c3c(F)cccc3Cl)c(C)cc2O1 [Example 55, Methyl (S,E)-3-(6-(2-(2-chloro-6-fluorophenyl)prop-1-en-1-yl)-7-methyl-4-((3-(trifluoromethyl)phenyl)sulfonyl)-3,4-dihydro-2H-benzo[b][1,4]oxazin-2-yl)propanoate] | < 500 nM | < 500 nM | –
20 | CCOc1nn(CC)cc1S(=O)(=O)N1C[C@H](CCC(=O)OC)Oc2ccc(/C=C/c3c(F)cccc3F)cc21 [Example 89AF, (S,E)-methyl 3-(6-(2,6-difluorostyryl)-4-((3-ethoxy-1-ethyl-1H-pyrazol-4-yl)sulfonyl)-3,4-dihydro-2H-benzo[b][1,4]oxazin-2-yl)propanoate] | < 500 nM | > 10000 nM | –
21 | COc1cc(S(=O)(=O)N2C[C@H](CCC(=O)O)Oc3ccc(/C=C(\C)C4CCCC4)cc32)ccc1F [Example 191A, (S,E)-3-(6-(2-cyclopentylprop-1-en-1-yl)-4-((4-fluoro-3-methoxyphenyl)sulfonyl)-3,4-dihydro-2H-benzo[b][1,4]-oxazin-2-yl)propanoic acid] | – | – | EC50 ([1]; RORγ-LBD TR-FRET assay): < 500 nM; TR-FRET Assay Max Response ([1]; RORγ-LBD TR-FRET assay): ** (a value in the range of greater than 90 to 150); EC50 [2, 4]: 500 to 5000 nM; Gal4-RORγ Assay Max Response [2, 4]: ** (a value in the range of greater than 90 to 150)
